What was measured:
[1] = molecular target: Mitogen-activated protein kinase 8 (Homo sapiens) (UniProt P45983); test: Inhibition of human recombinant JNK1 at 15 nM in presence of ATP by radiometric assay relative to control
[2] = molecular target: Leucine-rich repeat serine/threonine-protein kinase 2 (Homo sapiens) (UniProt Q5S007); test: Inhibition of human recombinant LRRK2 at 15 nM related to control ULK1
[3] = molecular target: T1, Dual specificity tyrosine-phosphorylation-regulated kinase 2 (Homo sapiens) (UniProt Q92630); test: Inhibition of human recombinant DYRK2 at 40 nM related to control ULK1
T1 sequence (whole entry): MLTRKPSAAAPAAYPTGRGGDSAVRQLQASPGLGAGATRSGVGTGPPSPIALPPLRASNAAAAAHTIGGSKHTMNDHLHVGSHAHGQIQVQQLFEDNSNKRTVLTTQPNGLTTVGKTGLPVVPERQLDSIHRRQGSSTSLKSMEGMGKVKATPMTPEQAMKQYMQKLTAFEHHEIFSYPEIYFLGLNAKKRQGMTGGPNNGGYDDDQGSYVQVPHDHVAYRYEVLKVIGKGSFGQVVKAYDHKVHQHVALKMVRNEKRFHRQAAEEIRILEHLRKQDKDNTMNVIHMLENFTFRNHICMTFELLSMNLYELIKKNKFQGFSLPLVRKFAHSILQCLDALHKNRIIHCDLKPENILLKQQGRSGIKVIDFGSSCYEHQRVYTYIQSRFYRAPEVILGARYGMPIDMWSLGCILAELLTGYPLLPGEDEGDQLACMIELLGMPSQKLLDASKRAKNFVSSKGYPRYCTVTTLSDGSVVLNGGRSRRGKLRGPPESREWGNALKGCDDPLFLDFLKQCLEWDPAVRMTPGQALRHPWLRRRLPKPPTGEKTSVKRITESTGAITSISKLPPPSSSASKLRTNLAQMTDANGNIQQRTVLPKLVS

[4] = molecular target: T2, Serine/threonine-protein kinase TAO2 (Homo sapiens) (UniProt Q9UL54); test: Inhibition of human recombinant TAO2 at 40 nM related to control ULK1
T2 sequence (whole entry): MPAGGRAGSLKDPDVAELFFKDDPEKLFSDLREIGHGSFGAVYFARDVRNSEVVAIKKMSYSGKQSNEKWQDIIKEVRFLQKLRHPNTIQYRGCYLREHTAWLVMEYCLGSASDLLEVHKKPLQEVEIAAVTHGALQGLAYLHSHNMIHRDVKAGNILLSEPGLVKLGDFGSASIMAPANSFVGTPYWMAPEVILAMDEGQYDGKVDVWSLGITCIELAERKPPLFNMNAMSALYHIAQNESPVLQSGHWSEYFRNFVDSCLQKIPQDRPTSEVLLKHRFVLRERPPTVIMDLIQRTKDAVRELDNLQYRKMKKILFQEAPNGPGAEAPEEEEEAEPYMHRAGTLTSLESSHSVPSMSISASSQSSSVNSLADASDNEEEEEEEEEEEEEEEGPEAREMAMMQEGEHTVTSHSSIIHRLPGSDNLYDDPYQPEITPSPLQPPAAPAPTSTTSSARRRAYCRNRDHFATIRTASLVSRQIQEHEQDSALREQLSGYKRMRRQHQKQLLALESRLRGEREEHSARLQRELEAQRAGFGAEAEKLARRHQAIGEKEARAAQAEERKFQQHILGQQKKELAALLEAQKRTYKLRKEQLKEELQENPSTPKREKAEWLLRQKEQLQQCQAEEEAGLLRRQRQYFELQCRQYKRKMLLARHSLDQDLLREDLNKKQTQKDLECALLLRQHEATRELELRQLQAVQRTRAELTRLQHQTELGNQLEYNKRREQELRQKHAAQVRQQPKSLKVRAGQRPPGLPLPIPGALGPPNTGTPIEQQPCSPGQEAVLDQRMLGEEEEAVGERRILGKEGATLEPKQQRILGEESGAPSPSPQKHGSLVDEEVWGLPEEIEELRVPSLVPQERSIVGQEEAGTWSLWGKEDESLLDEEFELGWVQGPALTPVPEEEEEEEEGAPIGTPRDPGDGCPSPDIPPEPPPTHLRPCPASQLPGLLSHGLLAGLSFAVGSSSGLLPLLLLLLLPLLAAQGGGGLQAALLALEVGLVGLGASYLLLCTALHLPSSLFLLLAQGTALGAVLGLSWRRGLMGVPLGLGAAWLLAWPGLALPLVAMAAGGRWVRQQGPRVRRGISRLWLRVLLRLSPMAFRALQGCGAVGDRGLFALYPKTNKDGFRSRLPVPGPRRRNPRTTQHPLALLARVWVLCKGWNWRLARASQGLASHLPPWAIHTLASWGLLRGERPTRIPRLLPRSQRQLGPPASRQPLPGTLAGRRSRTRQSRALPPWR

[5] = molecular target: T3, Serine/threonine-protein kinase Sgk2 (Homo sapiens) (UniProt Q9HBY8); test: Inhibition of human recombinant SGK2 at 40 nM in presence of ATP by radiometric assay relative to control
T3 sequence (whole entry): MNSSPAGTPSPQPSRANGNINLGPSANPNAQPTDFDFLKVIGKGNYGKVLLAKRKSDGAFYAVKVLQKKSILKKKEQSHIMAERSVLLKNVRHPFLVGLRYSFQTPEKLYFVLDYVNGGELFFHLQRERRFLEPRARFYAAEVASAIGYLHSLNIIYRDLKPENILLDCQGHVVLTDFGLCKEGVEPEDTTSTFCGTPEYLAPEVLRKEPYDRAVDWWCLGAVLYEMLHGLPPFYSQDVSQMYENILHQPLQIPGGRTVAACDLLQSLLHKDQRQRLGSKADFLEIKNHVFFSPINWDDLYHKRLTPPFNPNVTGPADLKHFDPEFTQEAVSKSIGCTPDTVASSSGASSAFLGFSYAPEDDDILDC

Leucine-rich repeat serine/threonine-protein kinase 2 (Homo sapiens), sequence (Q5S007 whole entry): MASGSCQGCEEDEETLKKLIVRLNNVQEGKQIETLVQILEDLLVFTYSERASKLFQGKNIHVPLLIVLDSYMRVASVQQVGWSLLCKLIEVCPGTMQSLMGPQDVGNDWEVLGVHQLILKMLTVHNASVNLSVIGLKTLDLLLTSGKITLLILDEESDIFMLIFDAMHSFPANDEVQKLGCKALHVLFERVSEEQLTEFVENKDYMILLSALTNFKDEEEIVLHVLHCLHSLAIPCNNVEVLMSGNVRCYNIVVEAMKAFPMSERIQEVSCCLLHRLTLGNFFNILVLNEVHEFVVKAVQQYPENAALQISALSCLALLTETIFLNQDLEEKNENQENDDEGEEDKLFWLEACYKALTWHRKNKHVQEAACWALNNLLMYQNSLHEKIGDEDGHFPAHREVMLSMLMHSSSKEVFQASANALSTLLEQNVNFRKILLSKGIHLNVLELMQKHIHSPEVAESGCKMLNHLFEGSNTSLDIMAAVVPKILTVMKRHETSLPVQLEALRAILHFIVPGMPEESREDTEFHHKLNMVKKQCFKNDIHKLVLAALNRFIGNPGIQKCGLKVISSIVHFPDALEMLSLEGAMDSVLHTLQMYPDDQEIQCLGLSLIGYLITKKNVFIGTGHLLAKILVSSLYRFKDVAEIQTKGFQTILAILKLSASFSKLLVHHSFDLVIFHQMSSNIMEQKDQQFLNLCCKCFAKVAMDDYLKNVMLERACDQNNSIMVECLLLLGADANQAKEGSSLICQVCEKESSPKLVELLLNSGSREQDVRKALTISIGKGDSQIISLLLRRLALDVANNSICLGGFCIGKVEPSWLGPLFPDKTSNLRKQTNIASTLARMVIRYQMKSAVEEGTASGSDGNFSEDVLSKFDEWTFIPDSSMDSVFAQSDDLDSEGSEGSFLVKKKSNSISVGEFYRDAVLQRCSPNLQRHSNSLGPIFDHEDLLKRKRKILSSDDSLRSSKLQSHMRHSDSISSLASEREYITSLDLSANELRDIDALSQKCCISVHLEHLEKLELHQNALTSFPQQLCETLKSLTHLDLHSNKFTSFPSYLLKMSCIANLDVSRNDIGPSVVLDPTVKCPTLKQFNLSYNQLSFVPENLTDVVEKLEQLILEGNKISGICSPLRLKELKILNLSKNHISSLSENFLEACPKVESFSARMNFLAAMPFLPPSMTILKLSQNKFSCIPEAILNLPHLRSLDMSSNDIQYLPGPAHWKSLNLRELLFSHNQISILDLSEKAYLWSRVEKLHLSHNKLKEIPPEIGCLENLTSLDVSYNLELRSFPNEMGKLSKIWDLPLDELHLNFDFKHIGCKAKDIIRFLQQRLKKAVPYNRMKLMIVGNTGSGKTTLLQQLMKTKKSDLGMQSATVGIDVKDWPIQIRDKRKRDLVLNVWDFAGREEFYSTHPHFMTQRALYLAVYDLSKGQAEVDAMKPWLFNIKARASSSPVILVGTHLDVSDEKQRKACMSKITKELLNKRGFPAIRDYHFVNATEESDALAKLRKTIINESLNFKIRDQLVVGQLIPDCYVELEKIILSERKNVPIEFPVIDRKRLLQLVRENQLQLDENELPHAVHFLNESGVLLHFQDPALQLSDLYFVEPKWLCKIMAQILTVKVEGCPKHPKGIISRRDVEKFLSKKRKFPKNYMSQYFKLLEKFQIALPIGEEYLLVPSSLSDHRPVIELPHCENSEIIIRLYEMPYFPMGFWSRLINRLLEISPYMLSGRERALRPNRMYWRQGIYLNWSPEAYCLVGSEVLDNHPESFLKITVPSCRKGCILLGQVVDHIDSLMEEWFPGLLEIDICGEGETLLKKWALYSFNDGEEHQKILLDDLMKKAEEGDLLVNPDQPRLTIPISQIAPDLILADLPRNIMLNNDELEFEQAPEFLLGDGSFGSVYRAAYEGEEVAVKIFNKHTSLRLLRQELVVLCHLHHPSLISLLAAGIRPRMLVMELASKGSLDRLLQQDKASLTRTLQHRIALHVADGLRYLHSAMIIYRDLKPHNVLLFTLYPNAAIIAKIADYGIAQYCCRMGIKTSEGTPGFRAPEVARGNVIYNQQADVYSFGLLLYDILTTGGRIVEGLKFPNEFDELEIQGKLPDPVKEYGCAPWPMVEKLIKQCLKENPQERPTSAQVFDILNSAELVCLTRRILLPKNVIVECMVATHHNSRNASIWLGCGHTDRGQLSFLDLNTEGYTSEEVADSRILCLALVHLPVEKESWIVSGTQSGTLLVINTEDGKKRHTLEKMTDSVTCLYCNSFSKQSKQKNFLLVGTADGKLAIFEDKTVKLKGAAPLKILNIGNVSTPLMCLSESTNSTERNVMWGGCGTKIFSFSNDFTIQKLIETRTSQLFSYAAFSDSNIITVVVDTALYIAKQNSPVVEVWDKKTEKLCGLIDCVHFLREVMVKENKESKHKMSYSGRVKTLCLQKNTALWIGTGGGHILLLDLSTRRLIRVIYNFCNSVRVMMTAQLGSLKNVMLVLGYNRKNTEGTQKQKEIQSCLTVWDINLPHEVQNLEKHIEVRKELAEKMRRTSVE
Mitogen-activated protein kinase 8 (Homo sapiens), sequence (P45983 whole entry): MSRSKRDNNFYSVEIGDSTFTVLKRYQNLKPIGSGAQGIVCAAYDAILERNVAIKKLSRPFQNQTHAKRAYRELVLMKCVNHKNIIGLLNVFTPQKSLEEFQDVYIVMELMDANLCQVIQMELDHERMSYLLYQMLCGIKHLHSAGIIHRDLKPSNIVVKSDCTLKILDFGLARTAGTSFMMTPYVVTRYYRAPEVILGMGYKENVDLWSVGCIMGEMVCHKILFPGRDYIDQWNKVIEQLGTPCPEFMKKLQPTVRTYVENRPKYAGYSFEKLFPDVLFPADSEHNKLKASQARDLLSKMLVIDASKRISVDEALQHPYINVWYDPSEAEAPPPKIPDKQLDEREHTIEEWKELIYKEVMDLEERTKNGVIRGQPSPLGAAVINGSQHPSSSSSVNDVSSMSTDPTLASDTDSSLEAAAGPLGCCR

inhibition [1]	fold change (FC) [2]	fold change (FC) [3]	fold change (FC) [4]	inhibition [5]	Compound
8%	0.03				CC(C)[C@H](NC(=O)c1cc(-c2cnn3cc(-c4ccc(OCCN5CCCCC5)cc4)cnc23)cs1)C(F)(F)F
		0.15	0.04	12%	O=C(N[C@@H](C1CC1)C(F)(F)F)c1cc(-c2cnn3cc(-c4ccc(F)cc4)cnc23)cs1

Reference: ChEMBL document CHEMBL5653631, “A Potent and Selective ULK1 Inhibitor Suppresses Autophagy and Sensitizes Cancer Cells to Nutrient Stress” (iScience, 2018)
